Data: ChEMBL document CHEMBL3621154 (Medchemcomm, 2014)

Legend:
[1] = biological target: T1, Amine oxidase [flavin-containing] B (Homo sapiens, UniProt P27338)
T1 sequence (P27338 whole entry): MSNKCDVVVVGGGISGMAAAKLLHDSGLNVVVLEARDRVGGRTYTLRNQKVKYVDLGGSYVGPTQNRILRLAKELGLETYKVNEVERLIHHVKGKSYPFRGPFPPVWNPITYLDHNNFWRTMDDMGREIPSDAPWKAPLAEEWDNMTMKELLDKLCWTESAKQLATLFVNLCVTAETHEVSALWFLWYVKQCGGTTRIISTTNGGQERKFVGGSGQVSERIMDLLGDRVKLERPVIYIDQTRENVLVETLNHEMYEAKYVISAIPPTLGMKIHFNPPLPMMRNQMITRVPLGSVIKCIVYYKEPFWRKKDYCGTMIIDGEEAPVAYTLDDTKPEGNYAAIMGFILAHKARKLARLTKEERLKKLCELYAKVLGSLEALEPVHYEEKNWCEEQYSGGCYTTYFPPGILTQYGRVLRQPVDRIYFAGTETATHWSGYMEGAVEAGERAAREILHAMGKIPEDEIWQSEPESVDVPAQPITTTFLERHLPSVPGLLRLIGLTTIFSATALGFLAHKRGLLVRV
Description: Inhibition of MAOB (unknown origin) by luminiscent assay

[2] = biological target: T2, Amine oxidase [flavin-containing] A (Homo sapiens, UniProt P21397)
T2 sequence (P21397 whole entry): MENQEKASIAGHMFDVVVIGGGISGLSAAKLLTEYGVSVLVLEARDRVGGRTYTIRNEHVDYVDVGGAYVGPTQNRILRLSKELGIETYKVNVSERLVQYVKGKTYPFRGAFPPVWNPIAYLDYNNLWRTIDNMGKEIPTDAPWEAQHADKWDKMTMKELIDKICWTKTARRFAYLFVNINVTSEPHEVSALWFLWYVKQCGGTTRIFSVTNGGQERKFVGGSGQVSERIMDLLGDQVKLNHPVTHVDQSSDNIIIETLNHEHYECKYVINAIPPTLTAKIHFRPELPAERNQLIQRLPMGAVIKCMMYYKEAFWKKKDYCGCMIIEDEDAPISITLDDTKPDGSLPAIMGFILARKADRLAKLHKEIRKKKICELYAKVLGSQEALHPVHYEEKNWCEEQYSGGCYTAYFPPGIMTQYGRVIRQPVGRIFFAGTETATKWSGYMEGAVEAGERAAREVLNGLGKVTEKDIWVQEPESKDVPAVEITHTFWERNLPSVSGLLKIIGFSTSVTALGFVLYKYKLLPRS
Description: Inhibition of MAOA (unknown origin) by luminiscent assay

| IC50 [1] [µM] | IC50 [2] [µM] | SMILES |
| --- | --- | --- |
| > 100 | > 100 | Nc1nnc(NCc2c(Cl)cccc2Oc2ccccc2)[nH]1 |
| > 100 | > 100 | COc1ccccc1CNc1n[nH]c(NCc2ccccc2OC)n1 |
